# Measured values: publication PMC5564600 (Oncotarget, 2017)
# What was measured:
# Assay in all cases: biochemical
# Format in all cases: binding
# [1] = biological target: T1, panel of 442 kinases (Homo sapiens, UniProt O76039); settings: CDKL5; for remaining activity at 1 µM: read-out: % of control at 1 µM
# T1 construct: purchased Ambit Biosciences (scanMAXX KINOMEscan)
# T1 sequence (O76039 1-960): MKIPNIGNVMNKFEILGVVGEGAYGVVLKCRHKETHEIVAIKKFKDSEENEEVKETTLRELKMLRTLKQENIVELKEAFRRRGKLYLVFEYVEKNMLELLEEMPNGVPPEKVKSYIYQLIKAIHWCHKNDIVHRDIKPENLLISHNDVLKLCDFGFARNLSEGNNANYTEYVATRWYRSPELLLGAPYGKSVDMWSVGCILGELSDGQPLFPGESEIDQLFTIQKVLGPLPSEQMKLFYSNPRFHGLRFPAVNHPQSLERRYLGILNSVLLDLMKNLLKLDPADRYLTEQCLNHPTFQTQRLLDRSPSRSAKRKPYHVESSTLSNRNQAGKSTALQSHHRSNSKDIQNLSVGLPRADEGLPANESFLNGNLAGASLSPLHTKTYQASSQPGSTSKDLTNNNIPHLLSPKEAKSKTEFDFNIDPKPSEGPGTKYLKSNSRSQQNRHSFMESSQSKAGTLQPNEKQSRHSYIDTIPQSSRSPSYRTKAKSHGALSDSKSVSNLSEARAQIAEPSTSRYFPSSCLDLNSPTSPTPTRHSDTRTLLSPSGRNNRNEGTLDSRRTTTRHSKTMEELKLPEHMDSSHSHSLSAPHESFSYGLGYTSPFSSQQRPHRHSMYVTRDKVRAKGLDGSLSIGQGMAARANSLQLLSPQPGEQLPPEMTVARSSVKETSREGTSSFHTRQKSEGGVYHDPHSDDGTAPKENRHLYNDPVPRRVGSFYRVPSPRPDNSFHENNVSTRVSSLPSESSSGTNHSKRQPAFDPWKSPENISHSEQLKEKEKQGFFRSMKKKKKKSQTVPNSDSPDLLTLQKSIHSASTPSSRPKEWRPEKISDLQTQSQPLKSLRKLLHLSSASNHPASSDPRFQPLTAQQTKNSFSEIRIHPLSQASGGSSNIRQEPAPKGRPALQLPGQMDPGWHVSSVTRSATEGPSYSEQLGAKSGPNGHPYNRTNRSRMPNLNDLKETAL
# [2] = biological target: T2, panel of 442 kinases (Homo sapiens, UniProt P07332); settings: FES; for remaining activity at 1 µM: read-out: % of control at 1 µM
# T2 construct: purchased Ambit Biosciences (scanMAXX KINOMEscan)
# T2 sequence (P07332 whole entry): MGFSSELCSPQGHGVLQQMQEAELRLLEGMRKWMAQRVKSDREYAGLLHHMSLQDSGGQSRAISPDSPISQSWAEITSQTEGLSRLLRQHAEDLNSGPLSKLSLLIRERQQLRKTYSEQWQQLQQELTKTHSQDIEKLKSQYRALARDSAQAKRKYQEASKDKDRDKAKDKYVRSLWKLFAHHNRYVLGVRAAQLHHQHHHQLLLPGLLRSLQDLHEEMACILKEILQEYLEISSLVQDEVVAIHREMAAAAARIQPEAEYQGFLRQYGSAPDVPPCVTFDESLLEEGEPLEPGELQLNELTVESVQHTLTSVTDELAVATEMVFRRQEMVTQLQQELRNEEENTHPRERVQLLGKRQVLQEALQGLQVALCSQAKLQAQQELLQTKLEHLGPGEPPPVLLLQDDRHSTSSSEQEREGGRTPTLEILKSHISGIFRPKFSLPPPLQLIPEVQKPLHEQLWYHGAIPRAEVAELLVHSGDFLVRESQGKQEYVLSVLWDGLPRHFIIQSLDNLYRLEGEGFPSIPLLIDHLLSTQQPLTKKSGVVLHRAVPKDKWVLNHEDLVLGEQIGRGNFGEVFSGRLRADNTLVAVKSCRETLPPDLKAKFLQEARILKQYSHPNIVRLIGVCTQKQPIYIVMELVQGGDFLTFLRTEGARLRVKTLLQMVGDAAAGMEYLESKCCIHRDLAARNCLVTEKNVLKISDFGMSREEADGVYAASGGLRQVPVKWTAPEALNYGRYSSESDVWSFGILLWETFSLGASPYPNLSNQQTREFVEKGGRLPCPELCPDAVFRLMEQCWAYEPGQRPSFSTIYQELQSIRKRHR
# [3] = biological target: T3, panel of 442 kinases (Homo sapiens, UniProt P27361); settings: ERK1; for remaining activity at 1 µM: read-out: % of control at 1 µM
# T3 construct: purchased Ambit Biosciences (scanMAXX KINOMEscan)
# T3 sequence (P27361 whole entry): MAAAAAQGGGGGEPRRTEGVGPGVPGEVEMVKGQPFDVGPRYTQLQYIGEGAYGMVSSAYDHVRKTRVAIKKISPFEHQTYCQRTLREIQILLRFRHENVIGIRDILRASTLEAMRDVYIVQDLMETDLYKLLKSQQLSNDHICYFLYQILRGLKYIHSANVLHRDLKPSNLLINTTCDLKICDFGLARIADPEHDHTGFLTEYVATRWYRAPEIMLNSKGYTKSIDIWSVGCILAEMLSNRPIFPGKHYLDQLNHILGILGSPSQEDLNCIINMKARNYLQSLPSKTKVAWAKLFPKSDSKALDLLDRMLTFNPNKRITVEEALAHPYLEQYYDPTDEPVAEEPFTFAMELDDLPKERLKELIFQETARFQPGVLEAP
# [4] = biological target: T4, panel of 442 kinases (Homo sapiens, UniProt P42345); settings: kinase MTOR; for remaining activity at 1 µM: read-out: % of control at 1 µM
# T4 construct: purchased Ambit Biosciences (scanMAXX KINOMEscan)
# [5] = biological target: T5, panel of 442 kinases (Homo sapiens, UniProt Q13043); settings: kinase MST1; for remaining activity at 1 µM: read-out: % of control at 1 µM
# T5 construct: purchased Ambit Biosciences (scanMAXX KINOMEscan)
# T5 sequence (Q13043 1-487): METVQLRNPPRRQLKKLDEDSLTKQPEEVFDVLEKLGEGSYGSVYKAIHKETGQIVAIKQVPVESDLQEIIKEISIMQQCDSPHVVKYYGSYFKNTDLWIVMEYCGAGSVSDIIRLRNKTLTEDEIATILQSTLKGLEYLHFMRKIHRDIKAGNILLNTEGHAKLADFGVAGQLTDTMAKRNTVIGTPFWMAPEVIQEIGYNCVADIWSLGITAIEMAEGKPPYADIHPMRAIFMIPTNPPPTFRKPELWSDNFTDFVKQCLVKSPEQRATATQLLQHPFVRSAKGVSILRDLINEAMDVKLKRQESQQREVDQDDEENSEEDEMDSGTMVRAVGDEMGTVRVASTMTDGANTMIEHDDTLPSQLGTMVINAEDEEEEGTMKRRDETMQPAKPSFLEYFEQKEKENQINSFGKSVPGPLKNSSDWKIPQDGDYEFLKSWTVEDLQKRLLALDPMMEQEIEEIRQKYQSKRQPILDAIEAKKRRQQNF
# [6] = biological target: T6, panel of 442 kinases (Homo sapiens, UniProt Q16816); settings: kinase PHKG1; for remaining activity at 1 µM: read-out: % of control at 1 µM
# T6 construct: purchased Ambit Biosciences (scanMAXX KINOMEscan)
# T6 sequence (Q16816 whole entry): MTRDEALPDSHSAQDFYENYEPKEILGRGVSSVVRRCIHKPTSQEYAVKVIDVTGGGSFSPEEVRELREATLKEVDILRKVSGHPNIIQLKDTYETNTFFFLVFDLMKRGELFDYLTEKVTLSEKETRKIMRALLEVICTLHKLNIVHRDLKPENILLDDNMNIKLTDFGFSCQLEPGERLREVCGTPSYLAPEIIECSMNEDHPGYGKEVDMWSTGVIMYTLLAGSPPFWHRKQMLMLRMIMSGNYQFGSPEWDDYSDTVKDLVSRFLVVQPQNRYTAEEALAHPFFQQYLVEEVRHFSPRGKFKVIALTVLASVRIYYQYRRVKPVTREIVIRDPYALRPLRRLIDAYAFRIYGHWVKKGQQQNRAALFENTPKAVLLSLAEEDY
# [7] = biological target: T7, panel of 442 kinases (Homo sapiens, UniProt Q8TD19); settings: kinase NEK9; for remaining activity at 1 µM: read-out: % of control at 1 µM
# T7 construct: purchased Ambit Biosciences (scanMAXX KINOMEscan)
# T7 sequence (Q8TD19 1-979): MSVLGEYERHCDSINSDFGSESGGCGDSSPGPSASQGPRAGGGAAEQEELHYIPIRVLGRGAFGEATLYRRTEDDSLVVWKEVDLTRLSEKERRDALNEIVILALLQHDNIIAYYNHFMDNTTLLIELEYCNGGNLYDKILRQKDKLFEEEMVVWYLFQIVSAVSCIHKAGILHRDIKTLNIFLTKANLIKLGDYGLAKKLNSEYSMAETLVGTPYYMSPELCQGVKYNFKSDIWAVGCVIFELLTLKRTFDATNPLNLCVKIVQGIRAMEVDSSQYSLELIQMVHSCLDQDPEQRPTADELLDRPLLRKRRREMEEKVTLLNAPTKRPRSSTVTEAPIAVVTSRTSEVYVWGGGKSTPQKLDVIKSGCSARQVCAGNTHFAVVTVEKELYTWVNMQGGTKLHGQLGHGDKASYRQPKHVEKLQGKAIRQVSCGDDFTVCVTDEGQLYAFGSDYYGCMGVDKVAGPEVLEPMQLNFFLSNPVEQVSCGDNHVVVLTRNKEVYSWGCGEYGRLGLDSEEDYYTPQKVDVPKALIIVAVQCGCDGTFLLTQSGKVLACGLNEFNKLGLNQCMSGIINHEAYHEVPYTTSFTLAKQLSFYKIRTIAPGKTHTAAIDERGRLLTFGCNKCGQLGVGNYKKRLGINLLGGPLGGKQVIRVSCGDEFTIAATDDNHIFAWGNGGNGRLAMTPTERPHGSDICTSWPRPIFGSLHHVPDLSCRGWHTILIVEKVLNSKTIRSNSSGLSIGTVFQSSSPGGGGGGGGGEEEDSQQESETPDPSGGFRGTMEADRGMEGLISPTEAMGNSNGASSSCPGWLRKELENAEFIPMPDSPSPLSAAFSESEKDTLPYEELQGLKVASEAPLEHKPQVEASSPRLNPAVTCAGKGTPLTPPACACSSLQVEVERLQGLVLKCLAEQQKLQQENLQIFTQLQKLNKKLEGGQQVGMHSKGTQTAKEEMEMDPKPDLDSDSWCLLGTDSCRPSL
# [8] = biological target: T8, panel of 442 kinases (Homo sapiens, UniProt Q9UPE1); settings: kinase SRPK3; for remaining activity at 1 µM: read-out: SRPK3 (% of control at 1 µM)
# T8 construct: purchased Ambit Biosciences (scanMAXX KINOMEscan)
# T8 sequence (Q9UPE1 whole entry): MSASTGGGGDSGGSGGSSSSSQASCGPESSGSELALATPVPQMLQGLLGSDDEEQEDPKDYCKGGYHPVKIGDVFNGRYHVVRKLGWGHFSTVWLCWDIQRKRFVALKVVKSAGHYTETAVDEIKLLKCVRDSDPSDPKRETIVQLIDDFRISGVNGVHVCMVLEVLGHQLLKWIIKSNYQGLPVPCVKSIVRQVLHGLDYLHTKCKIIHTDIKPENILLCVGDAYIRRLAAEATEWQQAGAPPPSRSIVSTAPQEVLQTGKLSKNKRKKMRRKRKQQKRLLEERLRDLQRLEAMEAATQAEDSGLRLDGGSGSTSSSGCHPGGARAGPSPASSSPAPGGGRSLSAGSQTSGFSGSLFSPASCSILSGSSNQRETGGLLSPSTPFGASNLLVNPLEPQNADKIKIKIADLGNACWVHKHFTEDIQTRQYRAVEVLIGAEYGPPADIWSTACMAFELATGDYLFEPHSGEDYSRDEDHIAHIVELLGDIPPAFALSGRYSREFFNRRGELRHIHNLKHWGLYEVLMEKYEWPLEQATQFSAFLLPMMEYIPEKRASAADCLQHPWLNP
# [9] = 10 µM, read-out: % of control at 10 µM
Compound,remaining activity at 1 µM [1] [%],"remaining activity at 10 µM [1, 9] [%]",remaining activity at 1 µM [2] [%],"remaining activity at 10 µM [2, 9] [%]",remaining activity at 1 µM [3] [%],"remaining activity at 10 µM [3, 9] [%]",remaining activity at 1 µM [4] [%],"remaining activity at 10 µM [4, 9] [%]",remaining activity at 1 µM [5] [%],"remaining activity at 10 µM [5, 9] [%]",remaining activity at 1 µM [6] [%],"remaining activity at 10 µM [6, 9] [%]",remaining activity at 1 µM [7] [%],"remaining activity at 10 µM [7, 9] [%]",remaining activity at 1 µM [8] [%],"remaining activity at 10 µM ([8]; 10 µM, read-out: SRPK3 (% of control at 10 µM)) [%]"
Nc1cc(C(F)(F)F)c(-c2cc(N3CCOCC3)nc(N3CCOCC3)n2)cn1 [Buparlisib],88,100,100,100,92,100,20,4.6,95,100,99,100,94,100,100,100
COc1ncc(-c2ccc3nccc(-c4ccnnc4)c3c2)cc1NS(=O)(=O)c1ccc(F)cc1F [Omipalisib],100,–,100,–,100,–,0,–,100,–,86,–,100,–,100,–
"FC(F)c1nc2ccccc2n1-c1nc(N2CCOCC2)nc(N2CCOCC2)n1 [ZSTK474, 2-(difluoromethyl)-1-[4,6-di(4-morpholinyl)-1,3,5-triazin-2-yl]-1H-benzimidazole]",100,–,100,–,100,–,0.75,–,53,–,100,–,84,–,100,–
"Cn1c(=O)n(-c2ccc(C(C)(C)C#N)cc2)c2c3cc(-c4cnc5ccccc5c4)ccc3ncc21 [Dactolisib, 2-methyl-2-[4-(3-methyl-2-oxo-8-quinolin-3-yl-2,3-dihydroimidazo[4,5-c]quinolin-1-yl)-phenyl] propionitrile]",100,–,92,–,97,–,0,–,66,–,100,–,96,–,91,–
